From the supplement of paper PMC9663587

Legend:
[1] = compound: CCc1cnn2c(NCc3ccc[n+]([O-])c3)cc(N3CCCC[C@H]3CCO)nc12
[2] = compound: T1, CN(C)C(=O)c1cc2cnc(Nc3ccc(N4CCNCC4)cn3)nc2n1C1CCCC1 [LEE011/Ribociclib]
[3] = compound: COc1cccc2c1C(=O)c1c(O)c3c(c(O)c1C2=O)C[C@@](O)(C(=O)CO)C[C@@H]3O[C@H]1C[C@H](N)[C@H](O)[C@H](C)O1 [Doxorubicin]
[4] = compound: CS(=O)(=O)N1CCN(Cc2cc3nc(-c4cccc5[nH]ncc45)nc(N4CCOCC4)c3s2)CC1 [Pictilisib/GDC0941]
[5] = compound: Cc1cc(Nc2ncc(Cl)c(Nc3ccccc3S(=O)(=O)C(C)C)n2)c(OC(C)C)cc1C1CCNCC1 [Ceritinib/LDK378]
[6] = compound: Cc1nn(C)c(COc2ccc(N3CCN(S(=O)(=O)N(C)C)CC3)cc2)c1-c1cccc2c(CCCOc3cccc4ccccc34)c(C(=O)O)n(CCN3CCOCC3)c12
[7] = compound: C=CC(=O)Nc1ccc(C(=O)Nc2[nH]nc3c2CN(C(=O)N[C@H](CN(C)C)c2ccccc2)C3(C)C)cc1 [YKL-5-124]; experiment: increase in dead-cell fraction, 72 h; higher = more death;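 further: breast cancer cell lines in 384-well plates, stained with Hoechst plus LIVE/DEAD far red dye and imaged, cells above an LDR intensity threshold counted dead, Hoechst-negative corpses included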
[8] = compound: CC(=O)c1c(C)c2cnc(Nc3ccc(N4CCN(CCOCCOCCOCCNC(=O)COc5cccc6c5C(=O)N(C5CCC(=O)NC5=O)C6=O)CC4)cn3)nc2n(C2CCCC2)c1=O [BSJ-03-123]; experiment: as above
[9] = compound: CC(=O)c1c(C)c2cnc(Nc3ccc(N4CCNCC4)cn3)nc2n(C2CCCC2)c1=O; experiment: as above
[10] = compound: CCN1CCN(Cc2ccc(Nc3ncc(F)c(-c4cc(F)c5nc(C)n(C(C)C)c5c4)n3)nc2)CC1; experiment: as above
[11] = compound: CCOc1cc2ncc(C#N)c(Nc3ccc(OCc4ccccn4)c(Cl)c3)c2cc1NC(=O)/C=C/CN(C)C [Neratinib/HKI272]; experiment: as above
[12] = compound: CCc1cnn2c(NCc3ccc[n+]([O-])c3)cc(N3CCCC[C@H]3CCO)nc12; experiment: as above
[13] = compound: T1, LEE011/Ribociclib; experiment: as above
[14] = compound: CN(C)C/C=C/C(=O)Nc1ccc(C(=O)N2CCC[C@@H](Nc3ncc(Cl)c(-c4c[nH]c5ccccc45)n3)C2)cc1 [THZ531]; experiment: as above
[15] = compound: CN(C)C/C=C/C(=O)Nc1ccc(C(=O)Nc2cccc(Nc3ncc(Cl)c(-c4c[nH]c5ccccc45)n3)c2)cc1 [THZ1]; experiment: as above
[16] = compound: CN1CC[C@H](c2c(O)cc(O)c3c(=O)cc(-c4ccccc4Cl)oc23)[C@H](O)C1 [Flavopiridol]; experiment: as above
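Wherever GR50, 72 h is given: breast cancer and non-malignant breast epithelial cell lines, Deep Dye Drop or Dye Drop imaging, nine half-log doses, GR normalized to time-zero plates and DMSO-only controls.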

Cell Line: HCC1419
- GR50, 72 h [1]: 0.0267 µM
- GR50, 72 h [2]: > 10 µM
- GR50, 72 h [3]: 0.0251 µM
- GR50, 72 h [4]: 0.172 µM
- GR50, 72 h [5]: 2.61 µM
- GR50, 72 h [6]: > 10 µM
- increase in dead-cell fraction ([7]; 0.001 µM): 0.0323
- increase in dead-cell fraction ([7]; 0.003162 µM): 0.0181
- increase in dead-cell fraction ([7]; 0.01 µM): 0.0297
- increase in dead-cell fraction ([7]; 0.03162 µM): 0.0399
- increase in dead-cell fraction ([7]; 0.1 µM): 0.0564
- increase in dead-cell fraction ([7]; 0.3162 µM): 0.0505
- increase in dead-cell fraction ([7]; 1 µM): 0.0568
- increase in dead-cell fraction ([7]; 3.162 µM): 0.0662
- increase in dead-cell fraction ([7]; 10 µM): 0.187
- increase in dead-cell fraction ([8]; 0.001 µM): 0.0036
- increase in dead-cell fraction ([8]; 0.003162 µM): 0.0018
- increase in dead-cell fraction ([8]; 0.01 µM): 0.0094
- increase in dead-cell fraction ([8]; 0.03162 µM): 0.0064
- increase in dead-cell fraction ([8]; 0.1 µM): 0.0141
- increase in dead-cell fraction ([8]; 0.3162 µM): 0.0138
- increase in dead-cell fraction ([8]; 1 µM): 0.0115
- increase in dead-cell fraction ([8]; 3.162 µM): 0.0247
- increase in dead-cell fraction ([8]; 10 µM): 0.031
- increase in dead-cell fraction ([9]; 0.0003162 µM): 0.0008
- increase in dead-cell fraction ([9]; 0.001 µM): -0.0028
- increase in dead-cell fraction ([9]; 0.003162 µM): -0.0032
- increase in dead-cell fraction ([9]; 0.01 µM): -0.0075
- increase in dead-cell fraction ([9]; 0.03162 µM): -0.0019
- increase in dead-cell fraction ([9]; 0.1 µM): -0.0096
- increase in dead-cell fraction ([9]; 0.3162 µM): -0.0094
- increase in dead-cell fraction ([9]; 1 µM): -0.0106
- increase in dead-cell fraction ([9]; 3.162 µM): -0.0074
- increase in dead-cell fraction ([10]; 0.001 µM): -0.0053
- increase in dead-cell fraction ([10]; 0.003162 µM): -0.0087
- increase in dead-cell fraction ([10]; 0.01 µM): -0.0058
- increase in dead-cell fraction ([10]; 0.03162 µM): -0.0119
- increase in dead-cell fraction ([10]; 0.1 µM): -0.0149
- increase in dead-cell fraction ([10]; 0.3162 µM): -0.0181
- increase in dead-cell fraction ([10]; 1 µM): -0.006
- increase in dead-cell fraction ([10]; 3.162 µM): -0.0031
- increase in dead-cell fraction ([10]; 10 µM): 0.0471
- increase in dead-cell fraction ([11]; 0.0003162 µM): -0.0014
- increase in dead-cell fraction ([11]; 0.001 µM): 0.0002
- increase in dead-cell fraction ([11]; 0.003162 µM): 0.0137
- increase in dead-cell fraction ([11]; 0.01 µM): 0.0803
- increase in dead-cell fraction ([11]; 0.03162 µM): 0.168
- increase in dead-cell fraction ([11]; 0.1 µM): 0.238
- increase in dead-cell fraction ([11]; 0.3162 µM): 0.274
- increase in dead-cell fraction ([11]; 1 µM): 0.366
- increase in dead-cell fraction ([11]; 3.162 µM): 0.493
- increase in dead-cell fraction ([12]; 0.0001 µM): -0.001
- increase in dead-cell fraction ([12]; 0.0003162 µM): -0.0047
- increase in dead-cell fraction ([12]; 0.001 µM): -0.0035
- increase in dead-cell fraction ([12]; 0.003162 µM): -0.0074
- increase in dead-cell fraction ([12]; 0.01 µM): -0.001
- increase in dead-cell fraction ([12]; 0.03162 µM): 0.0673
- increase in dead-cell fraction ([12]; 0.1 µM): 0.324
- increase in dead-cell fraction ([12]; 0.3162 µM): 0.371
- increase in dead-cell fraction ([12]; 1 µM): 0.369
- increase in dead-cell fraction ([13]; 0.001 µM): -0.0016
- increase in dead-cell fraction ([13]; 0.003162 µM): 0.0044
- increase in dead-cell fraction ([13]; 0.01 µM): 0.0015
- increase in dead-cell fraction ([13]; 0.03162 µM): -0.0001
- increase in dead-cell fraction ([13]; 0.1 µM): 0.0168
- increase in dead-cell fraction ([13]; 0.3162 µM): 0.0148
- increase in dead-cell fraction ([13]; 1 µM): 0.0084
- increase in dead-cell fraction ([13]; 3.162 µM): 0.0128
- increase in dead-cell fraction ([13]; 10 µM): 0.0195
- increase in dead-cell fraction ([14]; 0.0001 µM): -0.0026
- increase in dead-cell fraction ([14]; 0.0003162 µM): -0.0053
- increase in dead-cell fraction ([14]; 0.001 µM): 0.0001
- increase in dead-cell fraction ([14]; 0.003162 µM): -0.0057
- increase in dead-cell fraction ([14]; 0.01 µM): -0.0018
- increase in dead-cell fraction ([14]; 0.03162 µM): -0.001
- increase in dead-cell fraction ([14]; 0.1 µM): 0.0145
- increase in dead-cell fraction ([14]; 0.3162 µM): 0.0751
- increase in dead-cell fraction ([14]; 1 µM): 0.14
- increase in dead-cell fraction ([15]; 0.0001 µM): -0.0023
- increase in dead-cell fraction ([15]; 0.0003162 µM): 0.0069
- increase in dead-cell fraction ([15]; 0.001 µM): 0.0008
- increase in dead-cell fraction ([15]; 0.003162 µM): 0.001
- increase in dead-cell fraction ([15]; 0.01 µM): -0.0006
- increase in dead-cell fraction ([15]; 0.03162 µM): -0.0062
- increase in dead-cell fraction ([15]; 0.1 µM): 0.0395
- increase in dead-cell fraction ([15]; 0.3162 µM): 0.147
- increase in dead-cell fraction ([15]; 1 µM): 0.138
- increase in dead-cell fraction ([16]; 0.0001 µM): -0.0053
- increase in dead-cell fraction ([16]; 0.0003162 µM): -0.0069
- increase in dead-cell fraction ([16]; 0.001 µM): -0.006
- increase in dead-cell fraction ([16]; 0.003162 µM): -0.0084
- increase in dead-cell fraction ([16]; 0.01 µM): -0.0002
- increase in dead-cell fraction ([16]; 0.03162 µM): 0.0077
- increase in dead-cell fraction ([16]; 0.1 µM): 0.0061
- increase in dead-cell fraction ([16]; 0.3162 µM): 0.0159
- increase in dead-cell fraction ([16]; 1 µM): 0.162
